Values of other authors as cited in patent US20250268885A1, “ORAL COMPOSITION COMPRISING NICOTINAMIDE” (CONARIS Research Institute AG, priority 2022, published 2025).

Details: sources collected in PubChem

NC(=O)c1cccnc1 [Nicotinamide, nicotinamide]
solubility relative to diclofenac sodium: several orders of magnitude higher
